# Source: ChEMBL document CHEMBL1137828, “Spiroquinazolinones as novel, potent, and selective PDE7 inhibitors. Part 2: Optimization of 5,8-disubstituted derivatives” (Bioorg Med Chem Lett, 2004)
# Experiments:
# [1] = Solubility in Na2HPO4/NaH2PO4 buffer at pH 7.4; type: physicochemical
# [2] = molecular target: cGMP-inhibited 3',5'-cyclic phosphodiesterase 3A (Homo sapiens, UniProt Q14432); assay: Inhibition of human PDE3A3 expressed in baculovirus infected Sf9 cells
# [3] = molecular target: High affinity 3',5'-cyclic-AMP phosphodiesterase 7A (Homo sapiens, UniProt Q13946); assay: Inhibition of human PDE7A1 expressed in baculovirus infected Sf9 cells
# [4] = molecular target: cGMP-specific 3',5'-cyclic phosphodiesterase (Homo sapiens, UniProt O76074); assay: Inhibition of human PDE5 partially purified from MCF-7 cells; type: cell-free, MCF7
# [5] = Solubility in HCl/KCl buffer at pH 1; type: physicochemical
# [6] = molecular target: 3',5'-cyclic-AMP phosphodiesterase 4D (Homo sapiens, UniProt Q08499); assay: Inhibition of human PDE4D3 expressed in baculovirus infected Sf9 cells
# Phosphodiesterase 1 [7] = molecular target: T1, Phosphodiesterase 1 (Homo sapiens, UniProt P54750+Q01064+Q14123); assay: Inhibition of human PDE1 expressed in baculovirus infected Sf9 cells
# Phosphodiesterase 1 [8] = molecular target: T1, Phosphodiesterase 1; assay: Inhibition of human PDE1 partially purified from THP-1 cells; type: cell-free
# [9] = Oral bioavailability in rat (dose 2.5 mg/kg); type: ADME, organism-based; details: in vivo
# [10] = Volume of distribution in rats when administered at a dose of 0.5 mg/kg i.v.; type: ADME, organism-based; set-up: dose 0.5 mg/kg, route intravenous; details: rat, in vivo, iv
# [11] = Half-life in rats after peroral administration of 2.5 mg/kg; type: ADME, organism-based; set-up: dose 2.5 mg/kg, route oral; details: rat, in vivo, po
# [12] = Clearance in rats when administered at a dose of 0.5 mg/kg i.v.; type: ADME, organism-based; set-up: dose 0.5 mg/kg, route intravenous; details: rat, in vivo, iv
# Sequence of High affinity 3',5'-cyclic-AMP phosphodiesterase 7A (Q13946 whole entry): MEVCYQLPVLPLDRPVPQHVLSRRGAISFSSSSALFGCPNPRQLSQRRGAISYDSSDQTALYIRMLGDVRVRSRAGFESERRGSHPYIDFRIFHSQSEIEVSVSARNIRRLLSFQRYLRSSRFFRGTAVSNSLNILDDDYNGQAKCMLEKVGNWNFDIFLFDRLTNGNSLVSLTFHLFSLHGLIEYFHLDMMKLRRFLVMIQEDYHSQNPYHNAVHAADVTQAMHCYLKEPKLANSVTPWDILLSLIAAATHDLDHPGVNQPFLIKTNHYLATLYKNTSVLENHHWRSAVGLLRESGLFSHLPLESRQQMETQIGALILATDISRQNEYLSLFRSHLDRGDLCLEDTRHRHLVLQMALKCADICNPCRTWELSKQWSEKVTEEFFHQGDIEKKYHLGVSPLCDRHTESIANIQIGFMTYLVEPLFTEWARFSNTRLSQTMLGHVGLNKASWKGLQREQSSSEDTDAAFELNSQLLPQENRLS
# Sequence of cGMP-inhibited 3',5'-cyclic phosphodiesterase 3A (Q14432 whole entry): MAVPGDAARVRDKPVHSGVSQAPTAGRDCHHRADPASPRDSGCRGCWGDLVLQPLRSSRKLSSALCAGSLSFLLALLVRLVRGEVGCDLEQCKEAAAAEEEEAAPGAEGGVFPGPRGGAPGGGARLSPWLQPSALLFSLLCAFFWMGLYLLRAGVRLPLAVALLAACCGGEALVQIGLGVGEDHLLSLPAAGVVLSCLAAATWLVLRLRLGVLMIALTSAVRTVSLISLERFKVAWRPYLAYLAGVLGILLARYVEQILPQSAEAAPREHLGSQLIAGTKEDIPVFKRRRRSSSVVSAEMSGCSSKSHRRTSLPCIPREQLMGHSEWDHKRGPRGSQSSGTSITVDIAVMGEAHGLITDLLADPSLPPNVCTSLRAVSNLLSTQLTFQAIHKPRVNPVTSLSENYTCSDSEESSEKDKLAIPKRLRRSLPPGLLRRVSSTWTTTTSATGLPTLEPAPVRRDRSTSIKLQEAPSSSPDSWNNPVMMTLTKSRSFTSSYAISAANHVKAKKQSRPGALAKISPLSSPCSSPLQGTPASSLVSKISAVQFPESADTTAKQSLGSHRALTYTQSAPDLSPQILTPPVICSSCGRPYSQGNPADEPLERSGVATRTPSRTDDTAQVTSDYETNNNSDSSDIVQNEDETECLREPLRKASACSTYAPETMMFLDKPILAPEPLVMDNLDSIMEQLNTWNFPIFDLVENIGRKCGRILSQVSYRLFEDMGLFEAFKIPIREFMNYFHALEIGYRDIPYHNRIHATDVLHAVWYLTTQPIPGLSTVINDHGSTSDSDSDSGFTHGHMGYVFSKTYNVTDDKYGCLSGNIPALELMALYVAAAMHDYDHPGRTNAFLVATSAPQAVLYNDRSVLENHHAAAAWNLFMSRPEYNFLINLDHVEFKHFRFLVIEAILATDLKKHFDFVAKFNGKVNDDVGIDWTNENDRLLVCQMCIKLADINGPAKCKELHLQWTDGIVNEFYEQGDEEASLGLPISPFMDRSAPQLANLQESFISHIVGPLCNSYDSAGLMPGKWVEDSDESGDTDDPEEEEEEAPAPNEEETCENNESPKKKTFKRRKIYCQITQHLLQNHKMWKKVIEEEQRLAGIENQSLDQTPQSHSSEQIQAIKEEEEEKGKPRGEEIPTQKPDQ
# Sequence of 3',5'-cyclic-AMP phosphodiesterase 4D (Q08499 whole entry): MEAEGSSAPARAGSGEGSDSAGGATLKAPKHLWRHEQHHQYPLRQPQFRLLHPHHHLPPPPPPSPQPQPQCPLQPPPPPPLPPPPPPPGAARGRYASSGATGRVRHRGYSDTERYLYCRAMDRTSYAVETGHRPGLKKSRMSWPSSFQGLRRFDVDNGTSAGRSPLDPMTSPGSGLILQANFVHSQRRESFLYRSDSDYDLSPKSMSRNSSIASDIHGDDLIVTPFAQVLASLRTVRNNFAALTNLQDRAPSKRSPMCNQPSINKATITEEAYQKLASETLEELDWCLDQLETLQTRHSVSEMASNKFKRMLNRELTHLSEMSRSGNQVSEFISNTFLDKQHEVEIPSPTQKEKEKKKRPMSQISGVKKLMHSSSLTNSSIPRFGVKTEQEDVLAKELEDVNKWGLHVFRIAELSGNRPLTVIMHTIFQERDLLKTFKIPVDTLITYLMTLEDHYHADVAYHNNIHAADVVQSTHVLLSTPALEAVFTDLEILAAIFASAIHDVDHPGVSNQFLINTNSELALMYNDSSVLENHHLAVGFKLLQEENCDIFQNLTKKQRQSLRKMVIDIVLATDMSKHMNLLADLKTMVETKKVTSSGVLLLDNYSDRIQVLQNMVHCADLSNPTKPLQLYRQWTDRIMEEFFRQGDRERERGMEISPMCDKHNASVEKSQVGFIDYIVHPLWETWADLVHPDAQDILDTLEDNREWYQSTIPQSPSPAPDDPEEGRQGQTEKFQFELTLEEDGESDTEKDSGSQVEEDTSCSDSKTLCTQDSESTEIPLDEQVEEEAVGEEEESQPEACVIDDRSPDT
Structure (SMILES),solubility [1] [µg/mL],IC50 [2] [µM],IC50 [3] [µM],IC50 [4] [µM],solubility [5] [µg/mL],IC50 [6] [µM],IC50 (Phosphodiesterase 1 [7]) [µM],IC50 (Phosphodiesterase 1 [8]) [µM],bioavailability [9] [%],Vd [10] [L/kg],half-life [11] [h],clearance [12] [mL/min/kg]
O=C1Nc2c(Cl)ccc(Cl)c2C2(CCCCC2)N1,–,–,0.01,–,–,–,–,–,–,–,–,–
Cc1ccc(Cl)c2c1C1(CCCCC1)NC(=O)N2,–,–,0.1,–,–,–,–,–,–,–,–,–
O=C1Nc2c(Cl)ccc(OCCN3CCOCC3)c2C2(CCCCC2)N1,4,> 101,0.03,> 101,> 500,7.35,–,29,3.7,1.02,0.32,62.8
CN(C)CCOc1ccc(Cl)c2c1C1(CCCCC1)NC(=O)N2,195,> 101,0.15,74,> 500,3.28,–,19,–,–,–,–
O=C1Nc2c(Cl)ccc(OCc3ccc(C(=O)O)o3)c2C2(CCCCC2)N1,100,10.8,0.016,> 101,< 1,1.13,–,1.6,–,–,–,–
CNCC(O)COc1ccc(Cl)c2c1C1(CCCCC1)NC(=O)N2 (stereo unspecified),> 500,> 101,0.21,> 101,> 500,12,–,> 101,–,–,–,–
CCOC(=O)c1ccc(COc2ccc(Cl)c3c2C2(CCCCC2)NC(=O)N3)o1,–,78,0.01,80,–,1.02,–,2.98,–,–,–,–
NCCOCCOc1ccc(Cl)c2c1C1(CCCCC1)NC(=O)N2,> 500,> 101,1.62,> 101,> 500,99,–,> 101,–,–,–,–
O=C1Nc2c(Cl)cccc2C2(CCCCC2)N1,–,–,0.17,–,–,–,–,–,–,–,–,–
CN(C)CC(O)COc1ccc(Cl)c2c1C1(CCCCC1)NC(=O)N2 (stereo unspecified),137,> 101,0.4,> 101,> 500,55,–,> 101,–,–,–,–
O=C(O)COc1ccc(Cl)c2c1C1(CCCCC1)NC(=O)N2,> 500,> 68,0.04,> 101,1,15,–,4.76,21,1.04,1.4,39.4
O=C1Nc2c(Cl)ccc(OCCO)c2C2(CCCCC2)N1,18,> 73,0.05,> 91,11,12.2,–,10.5,27,1.41,1.5,33.6
O=C1Nc2c(Cl)ccc(OCc3noc(O)n3)c2C2(CCCCC2)N1,113,21.9,0.0035,> 101,< 1,0.82,–,0.61,–,–,–,–

# Now from value to compound:
solubility [1] [µg/mL],IC50 [2] [µM],IC50 [3] [µM],IC50 [4] [µM],solubility [5] [µg/mL],IC50 [6] [µM],IC50 (Phosphodiesterase 1 [7]) [µM],IC50 (Phosphodiesterase 1 [8]) [µM],bioavailability [9] [%],Vd [10] [L/kg],half-life [11] [h],clearance [12] [mL/min/kg],Structure (SMILES)
345,11.8,0.004,> 88,< 1,0.32,0.32,–,–,–,–,–,O=C1Nc2c(Cl)ccc(OCc3nn[nH]n3)c2C2(CCCCC2)N1
–,–,0.01,–,–,–,–,–,–,–,–,–,COc1ccc(Cl)c2c1C1(CCCCC1)NC(=O)N2
4,94,0.02,> 101,4,1.7,–,5.86,–,–,–,–,N#CCOc1ccc(Cl)c2c1C1(CCCCC1)NC(=O)N2
> 500,12.7,0.01,60,> 500,2.41,–,0.65,–,–,–,–,O=C1Nc2c(Cl)ccc(OCCCS(=O)(=O)O)c2C2(CCCCC2)N1
–,> 101,1.24,98,–,23.7,–,> 101,–,–,–,–,CN(C)CCCOc1ccc(Cl)c2c1C1(CCCCC1)NC(=O)N2
> 500,> 101,0.96,> 101,> 500,53.2,–,72.4,–,–,–,–,CNCCOc1ccc(Cl)c2c1C1(CCCCC1)NC(=O)N2
190,> 101,1.04,73.2,> 500,10.5,–,33,–,–,–,–,NCCOc1ccc(Cl)c2c1C1(CCCCC1)NC(=O)N2
230,> 101,0.04,> 101,> 500,14.7,–,29.7,6.5,0.47,2.7,39.9,O=C(O)CNCCOc1ccc(Cl)c2c1C1(CCCCC1)NC(=O)N2
–,–,0.01,–,–,–,–,–,–,–,–,–,O=C1Nc2c(Cl)ccc(O)c2C2(CCCCC2)N1
